From patent publication US4829082A, “Pharmaceutical compositions for the treatment of skin diseases” (Nisshin Chemicals Co., Ltd., priority 1986, dated 1989)
Where “and” joins values, the source holds several entries; their conditions need not be identical. Equal entries are not always repeated.

Columns and labels:
Acute toxicity in mice = settings: mouse, in vivo
rats = assay: Percutaneous subacute toxicity in rats; type: in vivo; settings: lotions containing 0.5% and 1.5% of TOC ester
Method: Percutaneous subacute toxicity in rats
Tests were conducted for 30 days using lotions containing 0.5% and 1.5% of TOC ester, respectively.

guinea pigs = assay: Appearance of skin allergy in guinea pigs (induction test); type: in vivo; settings: challenge two weeks after sensitization, 0.1 ml acetone solution containing 0.05%, 0.10% and 0.20% of TOC ester
Method: Appearance of skin allergy in guinea pigs
Induction tests were conducted, wherein guinea pigs were sensitized with 0.1 ml of 30% chloroform solution, and two weeks after sensitization, the pigs were treated on the skin with 0.1 ml of acetone solution containing 0.05%, 0.10% and 0.20% of TOC ester, respectively.

eyes of rabbits = assay: Irritation on eyes of rabbits; type: in vivo; settings: physiological salt suspensions containing 0.05% and 0.5% of TOC ester
Excerpt: Irritation on eyes of rabbits

human being = assay: Chafe on human being (Patch test); type: in vivo; settings: cream containing 0.1% and 0.3% of TOC ester
Excerpt: Chafe on human being (Patch test)

experimental bedsore = assay: Experimental bedsore of rabbits; type: in vivo, Japanese white male rabbits
Excerpt: (Experimental bedsore of rabbits)
Japanese white male rabbits weighing 2.5-4.4 kg were used.
An experimental bedsore was formed on the rabbits in accordance with the methods of Kosiak (Arch. Phys. Med. Rehabil., Vbl. 40, 62-69, 1959) and Fukawa et al. (Applied Pharmacology, Vol. 23, No. 6, 999-1011, 1982). The rabbits were anethetized with Nembutal® and fixed so that the shaved right trochanteric region of the rabbits was held horizontally, a pressure of 500-600 mmHg/cm^2 was applied to 2 cm^2 area of the skin in the shaved region, and the rabbits were held for 5-10 hours to allow development of bedsore. Two days after application of the pressure, occurrence of bedsore was confirmed.
The affective rabbits were distributed to two groups. One group (5 rabbits) was coated on the surface of bedsore region with a lotion containing 0.5% by weight of TOC ester by a brush once a day (said lotion being prepared from 900 parts by weight of water, 95 parts by weight of ethanol and 5 parts by weight of TOC ester). The other control group (4 rabbits) was coated once a day with only the base of the lotion (mixture of 900 parts of weight of water and 95 parts by weight of ethanol). One week after the treatment, a sheet of Japanese paper was applied to the bedsore area occurred in each rabbit. The injured area of said bedsore was transferred to the paper according to the etching method, and the transferred areas were measured by means of a planimeter.

bedsore = assay: Bedsore, human patient (Test Example 2); type: in vivo; settings: oil ointment containing 0.5% by weight of TOC ester on gauze
Excerpt: An oil ointment containing 0.5% by weight of TOC ester spread on a gauze was applied to the bedsore areas occurred in the ischium and whirlbone of a person lying in bed for a long time suffering from injury of myelon, said gauze being embedded in a depressed region of deep ulcer of bedsore after crumpling the gauze into a ball, and being applied as it was to a superficial region of the ulcer. The gauze was exchanged once or twice a day.

dermal ulcer = assay: Dermal ulcer occurred in a rheumatic patient (Test Example 3); type: in vivo, human; settings: same ointment as Test Example 2 (0.5%)
Excerpt: (Dermal ulcer occurred in a rheumatic patient)
The same ointment as used in Test Example 2 was applied directly or applied using a gauze over which said ointment had been spread, to a dermal ulcer occurred on a sacral region, sciatic tuber region, elbow head, inner and outer ankle regions and heel region of a person suffering from arthrorheumatism under hospital treatment.

burn ulcer = assay: Burn ulcer, human patient (Test Example 4); type: in vivo; settings: same ointment as Test Example 2 (0.5%), after one week
frostbite = assay: Frostbite, human patient (Test Example 5); type: in vivo; settings: same ointment as Test Example 2 (0.5%), about one week
[1] = test system: ulcer produced after zoster; assay: Zoster, human patient (Test Example 6); type: in vivo
Excerpt: To an ulcer produced after zoster had occurred on the neck through the shoulder of a person was applied a gauze over which the same ointment as used in Test Example 2 had been spread.

skin pruritus = assay: Skin pruritus, human patient (Test Example 7); type: in vivo; settings: same ointment as Test Example 2 (0.5%)
skin keratosis = assay: Skin keratosis, human patient (Test Example 8); type: in vivo; settings: same ointment as Test Example 2 (0.5%), three days after treatment
callosity = assay: Callosity, human patient (Test Example 9); type: in vivo; settings: lotion containing 0.5% by weight of TOC ester, about two weeks
eczema craquele = assay: Eczema craquele (cracking and chaps), human patient (Test Example 10); type: in vivo; settings: hydrophilic ointment containing 0.3% by weight of TOC ester
Excerpt: [Eczema craquele (cracking and chaps)]

housewife eczema = assay: Housewife eczema, human patient (Test Example 11); type: in vivo; settings: same hydrophilic ointment as Test Example 10 (0.3%), in a week
[2] = General statement on toxicity, side effects and healing effect

SMILES: CC(C=CC1=C(C)CCCC1(C)C)=CC=CC(C)=CC(=O)Oc1c(C)c(C)c2c(c1C)CCC(C)(CCCC(C)CCCC(C)CCCC(C)C)O2 (stereo not drawn) [TOC ester, tocopheryl retinoate]
- LD50 (Acute toxicity in mice; im): > 2500 mg/kg
- LD50 (Acute toxicity in mice; ip): > 10000 mg/kg
- LD50 (Acute toxicity in mice; po): > 10000 mg/kg
- LD50 (Acute toxicity in mice; sc): > 2500 mg/kg
- change in general symptoms, dermal symptoms and body weight (rats; 30 days): no change in general symptoms, dermal symptoms and body weight
- change in blood and physiological examinations, anatomical observation, wet weight of organs, and pathological histological examination (rats; after 30 days): no change was observed at all
- contact skin allergy (guinea pigs): No contact skin allergy was observed
- irritation on eyes (eyes of rabbits): no change was observed
- rubor or expansion (patch test) (human being): no rubor or expansion was observed at all
- Injured area difference, Average ± standard deviation (experimental bedsore; lotion containing 0.5% TOC ester group, 5 rabbits, one week, control 0.907 ± 0.292): 1.82 ± 0.213 cm2
- Injured area after one week (experimental bedsore; lotion containing 0.5% TOC ester once a day, individual rabbits): 1.30 cm2 and 0.98 cm2 and 0.70 cm2 and 0.09 cm2 and 0.23 cm2
- Injured area at the initiation of treatment (experimental bedsore; lotion containing 0.5% TOC ester, individual rabbits, before treatment): 2.68 cm2 and 3.01 cm2 and 1.95 cm2 and 2.20 cm2 and 2.56 cm2
- Injured area, Difference (experimental bedsore; lotion containing 0.5% TOC ester, individual rabbits, initiation minus after one week): 1.38 cm2 and 2.03 cm2 and 1.25 cm2 and 2.11 cm2 and 2.33 cm2
- reduction in the injured area of bedsore (experimental bedsore; lotion containing 0.5% by weight of TOC ester, once a day, one week, 5 rabbits): marked reduction in the injured area of bedsore
- bottom region of deep ulcer, buildup of flesh owing to granulation (bedsore; about one month): marked buildup of flesh owing to granulation at the bottom region of deep ulcer
- improvement in cuticularization along the circumference of ulcer (bedsore; about one month): a remarkable improvement in cuticularization
- width of cuticularization along the circumference of ulcer (bedsore; about one month): about 5 mm
- superficial region of ulcer, epidermization (bedsore; after one week): epidermization was observed on the superficial region of ulcer
- superficial region of ulcer, disappearance of sore and closure (bedsore; two weeks thereafter): sore disappeared from the superficial region of ulcer, and the epidermis was formed to close the sore region
- adverse side effects (dermal ulcer; during treatment period): No adverse side effects was observed
- proliferation of the granulation and epidermization (dermal ulcer; large ulcers, about three months): marked improvements in proliferation of the granulation and in epidermization
- proliferation of the granulation and epidermization (dermal ulcer; small ulcers, about two weeks): marked improvements in proliferation of the granulation and in epidermization
- healing of burn ulcer (burn ulcer): a remarkable improvement in healing of the ulcer
- healing of frostbite (frostbite): an improvement in healing of frostbite
- healing of the ulcer after zoster ([1]; same ointment as Test Example 2 (0.5%) on gauze, about one week): a marked improvement in healing of the ulcer
- recurrence ([1]; same ointment as Test Example 2 (0.5%), six months after the healing): no recurrence was observed
- itching sensation (skin pruritus; one day after treatment): itching sensation ceased
- healing of skin pruritus (skin pruritus; three days after the treatment): the skin pruritus healed perfectly
- healing of skin keratosis (skin keratosis): a marked improvement in healing of the disease
- improvement of callosity (callosity): an improvement such as softening of the callosity
- adverse side-effects (eczema craquele; during the period of treatment): no adverse side-effects were observed
- healing of eczema craquele (eczema craquele; one month): a marked improvement in healing of the disease
- healing of eczema craquele (eczema craquele; two months): the disease perfectly healed
- healing of housewife eczema (housewife eczema): a marked improvement in healing of the disease
- side effects [2]: almost no side effects
- toxicity [2]: extremely low in toxicity
